Experimental data published in patent US4877876A, “Novel indenothiazole derivative and process for preparing the same” (Hisamitsu Pharmaceutical Co., Inc., priority 1986, dated 1989).
Counter-ions that a name gives are not always drawn.

tested on: Wistar-strained male rats; test: Pharmacological test: ulcer inhibition against ethanol-induced ulcer in rats; assay type: in vivo; conditions: test compounds 50 mg/kg orally, one hour before 1 ml pure ethanol orally; compared with 0.5% tragacanth control
Protocol: Groups each consisting of 9 to 10 Wistar-strained male rats, each weighing about 200 g, were used in the test after their abstinence from food and water for 24 hours. Each test compound of this invention was administered in an amount of 50 mg/kg and a comparative medicine, "Neuer" (tradename: produced by Daiichi Pharmaceutical Co., Ltd.; effective component: centraxate) in an amount of 300 mg/kg. Each of the test compounds was administered orally to each rat of a first group and the comparative medicine to each rat of a second group one hour before oral administration of 1 ml of pure ethanol per rat. One hour later, each rat was sacrificed by exsanguination and its stomach was enucleated and fixed with 10 ml of 70% ethanol for about 30 minutes. A 0.5% tragacanth solution was administered to each rat of a third group. The ulcer was measured for length with naked eyes, and the test groups of rats were measured for their respective ulcer inhibition ratios in comparison with that for the third group.
Both the test compounds and the comparative medicine were each suspended or dissolved in a 0.5% tragacanth gum saline solution for use in the test. […] [formula]

SMILES | Ulcer inhibition ratio
Fc1ccc2c(c1)Cc1sc(NCCCN3CCOCC3)nc1-2 [Example 1 (dihydrochloride), 2-(3-morpholinopropyl)amino-6-fluoro-8H-indeno[1.2-d]thiazole] | 94.1%
Clc1ccc2c(c1)-c1nc(NCCN3CCOCC3)sc1C2 [Example 59] | 85.0%
Fc1ccc2c(c1)Cc1sc(NCCCN3CCOCC3)nc1-2 [Example 1, 2-(3-morpholinopropyl)amino-6-fluoro-8H-indeno[1.2-d]thiazole] | 89.0%
c1ccc2c(c1)Cc1sc(NCCCCN3CCOCC3)nc1-2 [Example 92] | 83.4%
Fc1ccc2c(c1)Cc1sc(NCCCN3CCOCC3)nc1-2 [Example 1 (maleic acid salt), 2-(3-morpholinopropyl)amino-6-fluoro-8H-indeno[1.2-d]thiazole] | 89.5%
CC1c2sc(NCCCN3CCOCC3)nc2-c2cccc(Cl)c21 (stereo not drawn) [Example 83 (dihydrochloride)] | 85.9%
c1ccc2c(c1)Cc1sc(NCCCN3CCOCC3)nc1-2 [Example 61] | 90.0%
CC(C)CNc1nc2c(s1)Cc1ccccc1-2 [Example 7] | 79.0%
Fc1ccc2c(c1)CC1SC(=NCCCN3CCOCC3)N=C21 (stereo not drawn) [Example 2] | 93.5%
